Data on 7 molecules can be found in ChEMBL document CHEMBL1671693, “Antimicrobial resistance of Listeria monocytogenes strains isolated from humans in France” (2010).

Converted amounts (≈) assume the structure as drawn. Some results are limits rather than exact numbers.

In assay [1] the test system is Listeria monocytogenes. The experiment in a line: Antibacterial activity against Listeria monocytogenes isolated from humans harboring putative ribosomal mutation. The class given is functional.
Assay [2] concerns Listeria monocytogenes. Description: Antibacterial activity against Listeria monocytogenes isolated from humans harboring cat gene. In kind it is functional.
The subject of assay [3] is Listeria monocytogenes. The experiment in a line: Antibacterial activity against Listeria monocytogenes isolated from humans harboring lde gene.
In assay [4] the test system is Listeria monocytogenes. The experiment in a line: Antibacterial activity against Listeria monocytogenes isolated from humans harboring tet(M) gene. The class given is functional.
Assay [5] relates to Listeria monocytogenes. The experiment in a line: Antibacterial activity against Listeria monocytogenes isolated from humans harboring int-tn gene. The class given is functional.
Assay [6] has as its system Listeria monocytogenes. Description: Antibacterial activity against Listeria monocytogenes isolated from humans harboring mutant dfrD gene.
The subject of assay [7] is Listeria monocytogenes. Description: Antibacterial activity against Listeria monocytogenes isolated from humans with putative chromosomal mutation. In kind it is functional.

For the molecule `CN[C@@H]1[C@H](O[C@H]2[C@H](O[C@H]3[C@H](O)[C@@H](O)[C@H](N=C(N)N)[C@@H](O)[C@@H]3N=C(N)N)O[C@@H](C)[C@]2(O)C=O)O[C@@H](CO)[C@H](O)[C@H]1O` [STREPTOMYCIN], 256 µg/mL (≈ 440 µM) was the least that counted as inhibitory in the assay with Listeria monocytogenes [1] (MIC).
In the assay with Listeria monocytogenes [2], `O=C(N[C@H](CO)[C@H](O)c1ccc([N+](=O)[O-])cc1)C(Cl)Cl` [CHLORAMPHENICOL] came in with a minimal inhibitory concentration (MIC) of 48 µg/mL (≈ 149 µM).
In the case of `O=C(O)c1cn(C2CC2)c2cc(N3CCNCC3)c(F)cc2c1=O` [CIPROFLOXACIN], the minimal inhibitory concentration (MIC) against Listeria monocytogenes [3] is greater than 6 µg/mL.
For `CN(C)c1ccc(O)c2c1C[C@H]1C[C@H]3[C@H](N(C)C)C(O)=C(C(N)=O)C(=O)[C@@]3(O)C(O)=C1C2=O` [MINOCYCLINE], the minimum inhibitory concentration (MIC) in the assay with Listeria monocytogenes [4] and in the assay with Listeria monocytogenes [5] was 8 µg/mL (≈ 17.5 µM) in each case.
As for `COc1cc(Cc2cnc(N)nc2N)cc(OC)c1OC` [TRIMETHOPRIM], the lowest concentration to inhibit growth with Listeria monocytogenes [6] (MIC) was 1020 µg/mL (≈ 3530 µM).
With `CN(C)[C@@H]1C(O)=C(C(N)=O)C(=O)[C@@]2(O)C(O)=C3C(=O)c4c(O)cccc4[C@@](C)(O)[C@H]3C[C@@H]12` [TETRACYCLINE], the minimal inhibitory concentration (MIC) with Listeria monocytogenes [4] and in the assay on Listeria monocytogenes [5] was 16 µg/mL (≈ 36 µM) throughout.
Molecule `CC[C@H]1OC(=O)[C@H](C)[C@@H](O[C@H]2C[C@@](C)(OC)[C@@H](O)[C@H](C)O2)[C@H](C)[C@@H](O[C@@H]2O[C@H](C)C[C@H](N(C)C)[C@H]2O)[C@](C)(O)C[C@@H](C)C(=O)[C@H](C)[C@@H](O)[C@]1(C)O` [ERYTHROMYCIN] came in with a minimum inhibitory concentration (MIC) against Listeria monocytogenes [7] of 256 µg/mL (≈ 349 µM).
